The structures appear in SMILES notation.

For this assay, the target named is T1, HCV polymerase (Hepatitis C virus genotype 1b, UniProt P26663).
T1 construct: 2.5 pmoles (0.15 μg) HCV polymerase protein in a final volume of 75 μL
T1 sequence (P26663 2420-3010): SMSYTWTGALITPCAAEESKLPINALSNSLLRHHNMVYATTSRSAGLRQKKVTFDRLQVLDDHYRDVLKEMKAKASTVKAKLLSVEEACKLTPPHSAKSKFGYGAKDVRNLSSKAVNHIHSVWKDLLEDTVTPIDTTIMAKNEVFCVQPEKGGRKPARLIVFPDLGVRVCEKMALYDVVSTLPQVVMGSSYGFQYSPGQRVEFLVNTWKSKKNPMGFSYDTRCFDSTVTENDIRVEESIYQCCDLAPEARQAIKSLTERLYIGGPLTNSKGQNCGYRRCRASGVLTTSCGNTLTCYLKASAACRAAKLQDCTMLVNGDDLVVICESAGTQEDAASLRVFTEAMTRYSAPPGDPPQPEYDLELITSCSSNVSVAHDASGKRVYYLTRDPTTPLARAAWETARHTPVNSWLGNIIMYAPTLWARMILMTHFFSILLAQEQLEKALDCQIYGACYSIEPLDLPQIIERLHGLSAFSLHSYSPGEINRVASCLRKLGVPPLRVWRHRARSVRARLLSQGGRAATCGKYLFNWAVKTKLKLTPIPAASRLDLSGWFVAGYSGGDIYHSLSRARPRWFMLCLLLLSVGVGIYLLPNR
Kind of assay: HCV polymerase primer/template-directed transcription assay (32P-GTP incorporation, filter binding). It is filed as biochemical. The note with it: recombinant HCV polymerase; 30 minutes at 30° C.; concentration giving 50% inhibition of polymerase-directed transcription; read-out: IC50. In short, it runs like this: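 Recombinant genotype 1b polymerase (30 nM) extended biotin-dG12 primer on poly(rC)300 template with 1 μM GTP plus α-32P-GTP, pH 7.2, 10 mM MgCl2, 30 min at 30° C, 1% DMSO final. Products captured on DE filters and counted. IC50 fitted from triplicate cpm, with a tight-binding correction applied below 200 nM.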
For the compound `COc1ccc(CCC2(C3CCCC3)CC(O)=C(Sc3nc4ncccc4[nH]3)C(=O)O2)cc1Cl` (centres unmarked) [C(43), 6-[2-(3-chloro-4-methoxyphenyl)ethyl]-6-cyclopentyl-4-hydroxy-3-(1H-imidazo[4,5-b]pyridin-2-ylthio)-5,6-dihydro-2H-pyran-2-one], the IC50 (in general, the concentration that inhibits the measured activity by half) is 0.035 µM.
On to `COc1ccc(CCC2(C3CCCC3)CC(O)=C(Sc3nc4ccccc4n3C(C)C)C(=O)O2)cc1Cl` (centres unmarked) [C(44), 6-[2-(3-chloro-4-methoxyphenyl)ethyl]-6-cyclopentyl-4-hydroxy-3-[(1-isopropyl-1H-benzimidazol-2-yl)thio]-5,6-dihydro-2H-pyran-2-one], for which the concentration for half-maximal inhibition (IC50) was determined as 0.18 µM.
In the case of `COc1ccc(CCC2(C3CCCC3)CC(O)=C(Sc3nc4ccccc4s3)C(=O)O2)cc1Cl` (centres unmarked) [C(45), 3-(1,3-benzothiazol-2-ylthio)-6-[2-(3-chloro-4-methoxyphenyl)ethyl]-6-cyclopentyl-4-hydroxy-5,6-dihydro-2H-pyran-2-one], the IC50 turned out to be 3.2 µM.
With `COc1ccc(CCC2(C3CCCC3)CC(O)=C(Sc3nc4cnccc4[nH]3)C(=O)O2)cc1Cl` (centres unmarked) [C(46), 6-[2-(3-chloro-4-methoxyphenyl)ethyl]-6-cyclopentyl-4-hydroxy-3-(1H-imidazo[4,5-c]pyridin-2-ylthio)-5,6-dihydro-2H-pyran-2-one], the IC50 came to 0.037 µM.
For the compound `COc1ccc(CCC2(C3CCCC3)CC(O)=C(Sc3nc4cccnc4s3)C(=O)O2)cc1Cl` (centres unmarked) [C(47), 6-[2-(3-chloro-4-methoxyphenyl)ethyl]-6-cyclopentyl-4-hydroxy-3-([1,3]thiazolo[5,4-b]pyridin-2-ylthio)-5,6-dihydro-2H-pyran-2-one], the IC50 came out at 0.24 µM.
With `COc1ccc(CCC2(C3CCCC3)CC(O)=C(Sc3nc4ccccc4n3-c3ccccc3)C(=O)O2)cc1Cl` (centres unmarked) [C(48), 6-[2-(3-chloro-4-methoxyphenyl)ethyl]-6-cyclopentyl-4-hydroxy-3-[(1-phenyl-1H-benzimidazol-2-yl)thio]-5,6-dihydro-2H-pyran-2-one], the IC50 worked out at 0.14 µM.
Take `COc1ccc(CCC2(C3CCCC3)CC(O)=C(Sc3nc4cc(Cl)ccc4[nH]3)C(=O)O2)cc1Cl` (centres unmarked) [C(49), 3-[(5-chloro-1H-benzimidazol-2-yl)thio]-6-[2-(3-chloro-4-methoxyphenyl)ethyl]-6-cyclopentyl-4-hydroxy-5,6-dihydro-2H-pyran-2-one]: the half-maximal inhibitory concentration (IC50) turned out to be 0.08 µM.
Turning to `COc1ccc(CCC2(C3CCCC3)CC(O)=C(Sc3nnc(-c4ccncc4)[nH]3)C(=O)O2)cc1Cl` (centres unmarked) [C(50), 6-[2-(3-chloro-4-methoxyphenyl)ethyl]-6-cyclopentyl-4-hydroxy-3-[(5-pyridin-4-yl-4H-1,2,4-triazol-3-yl)thio]-5,6-dihydro-2H-pyran-2-one], the IC50 came out at 0.01 µM.
On to `COc1ccc(CCC2(C3CCCC3)CC(O)=C(Sc3nnc(-c4ccncc4)o3)C(=O)O2)cc1Cl` (centres unmarked) [C(51), 6-[2-(3-chloro-4-methoxyphenyl)ethyl]-6-cyclopentyl-4-hydroxy-3-[(5-pyridin-4-yl-1,3,4-oxadiazol-2-yl)thio]-5,6-dihydro-2H-pyran-2-one], for which the IC50 was 0.256 µM.
As to `COc1ccc(CCC2(C3CCCC3)CC(O)=C(Sc3nc4cc(F)ccc4[nH]3)C(=O)O2)cc1Cl` (centres unmarked) [C(52), 6-[2-(3-chloro-4-methoxyphenyl)ethyl]-6-cyclopentyl-3-[(5-fluoro-1H-benzimidazol-2-yl)thio]-4-hydroxy-5,6-dihydro-2H-pyran-2-one], the concentration for half-maximal inhibition (IC50) turned out to be 0.14 µM.
The same measure for `COc1ccc(CCC2(C3CCCC3)CC(O)=C(Sc3nc4cc(C)ccc4[nH]3)C(=O)O2)cc1Cl` (centres unmarked) [C(53), 6-[2-(3-chloro-4-methoxyphenyl)ethyl]-6-cyclopentyl-4-hydroxy-3-[(5-methyl-1H-benzimidazol-2-yl)thio]-5,6-dihydro-2H-pyran-2-one]: 0.067 µM; for `COc1ccc(CCC2(C3CCCC3)CC(O)=C(Sc3nc4c(C)cccc4[nH]3)C(=O)O2)cc1Cl` (centres unmarked) [C(54), 6-[2-(3-chloro-4-methoxyphenyl)ethyl]-6-cyclopentyl-4-hydroxy-3-[(4-methyl-1H-benzimidazol-2-yl)thio]-5,6-dihydro-2H-pyran-2-one]: 0.22 µM.
As to `COc1ccc(CCC2(C3CCCC3)CC(O)=C(Sc3nc4cc(C#N)ccc4[nH]3)C(=O)O2)cc1Cl` (centres unmarked) [C(55), 2-({6-[2-(3-chloro-4-methoxyphenyl)ethyl]-6-cyclopentyl-4-hydroxy-2-oxo-5,6-dihydro-2H-pyran-3-yl}thio)-1H-benzimidazole-5-carbonitrile], the IC50 was 0.03 µM.
Consider `COc1ccc(CCC2(C3CCCC3)CC(O)=C(Sc3ncccc3C#N)C(=O)O2)cc1Cl` (centres unmarked) [C(56), 2-({6-[2-(3-chloro-4-methoxyphenyl)ethyl]-6-cyclopentyl-4-hydroxy-2-oxo-5,6-dihydro-2H-pyran-3-yl}thio)nicotinonitrile], for which the half-maximal inhibitory concentration (IC50) stood at 1.3 µM.
Take `COc1ccc(CCC2(C3CCCC3)CC(O)=C(Sc3nc4cc(Cl)ccc4n3C)C(=O)O2)cc1Cl` (centres unmarked) [C(57), 6-[2-(3-chloro-4-methoxyphenyl)ethyl]-3-[(5-chloro-1-methyl-1H-benzimidazol-2-yl)thio]-6-cyclopentyl-4-hydroxy-5,6-dihydro-2H-pyran-2-one]: the IC50 turned out to be 0.002 µM.
As for `COc1ccc(CCC2(C3CCCC3)CC(O)=C(Sc3nc4c(O)cccc4[nH]3)C(=O)O2)cc1Cl` (centres unmarked) [C(58), 6-[2-(3-chloro-4-methoxyphenyl)ethyl]-6-cyclopentyl-4-hydroxy-3-[(4-hydroxy-1H-benzimidazol-2-yl)thio]-5,6-dihydro-2H-pyran-2-one], the figure is 0.14 µM.
The same measure for `CCOc1ccc2[nH]c(SC3=C(O)CC(CCc4ccc(OC)c(Cl)c4)(C4CCCC4)OC3=O)nc2c1` (centres unmarked) [C(59), 6-[2-(3-chloro-4-methoxyphenyl)ethyl]-6-cyclopentyl-3-[(5-ethoxy-1H-benzimidazol-2-yl)thio]-4-hydroxy-5,6-dihydro-2H-pyran-2-one]: 0.2 µM.
Turning to `COc1ccc(CCC2(C3CCCC3)CC(O)=C(Sc3nc4cc(Cl)c(Cl)cc4n3C)C(=O)O2)cc1Cl` (centres unmarked) [C(60), 6-[2-(3-chloro-4-methoxyphenyl)ethyl]-6-cyclopentyl-3-[(5,6-dichloro-1-methyl-1H-benzimidazol-2-yl)thio]-4-hydroxy-5,6-dihydro-2H-pyran-2-one], the IC50 stood at 0.015 µM.
Turning to `COc1ccc(CCC2(C3CCCC3)CC(O)=C(Sc3nc4cc(Cl)c(F)cc4[nH]3)C(=O)O2)cc1Cl` (centres unmarked) [C(61), 3-[(5-chloro-6-fluoro-1H-benzimidazol-2-yl)thio]-6-[2-(3-chloro-4-methoxyphenyl)ethyl]-6-cyclopentyl-4-hydroxy-5,6-dihydro-2H-pyran-2-one], the half-inhibitory concentration (IC50) came out at 0.14 µM.
As for `COc1ccc(CCC2(C3CCCC3)CC(O)=C(Sc3nc4cc(C(F)(F)F)cc(Cl)c4[nH]3)C(=O)O2)cc1Cl` (centres unmarked) [C(62), 6-[2-(3-chloro-4-methoxyphenyl)ethyl]-3-{[7-chloro-5-(trifluoromethyl)-1H-benzimidazol-2-yl]thio}-6-cyclopentyl-4-hydroxy-5,6-dihydro-2H-pyran-2-one], the IC50 came to 0.5 µM.
In the case of `COc1cc(OC)c(CCC2(C3CCCC3)CC(O)=C(Sc3nc4cc(Cl)ccc4n3C)C(=O)O2)cc1Cl` (centres unmarked) [C(63), 6-[2-(5-chloro-2,4-dimethoxyphenyl)ethyl]-3-[(5-chloro-1-methyl-1H-benzimidazol-2-yl)thio]-6-cyclopentyl-4-hydroxy-5,6-dihydro-2H-pyran-2-one], the half-inhibitory concentration (IC50) is 0.008 µM.
As for `COc1ccc(CCC2(C3CCCC3)CC(O)=C(Sc3nc4cncnc4[nH]3)C(=O)O2)cc1Cl` (centres unmarked) [C(65), 6-[2-(3-chloro-4-methoxyphenyl)ethyl]-6-cyclopentyl-4-hydroxy-3-(9H-purin-8-ylthio)-5,6-dihydro-2H-pyran-2-one], the figure is 0.054 µM; as for `COc1ccc(CCC2(C3CCCC3)CC(O)=C(Sc3ccc4ccccc4n3)C(=O)O2)cc1Cl` (centres unmarked) [C(66), 6-[2-(3-chloro-4-methoxyphenyl)ethyl]-6-cyclopentyl-4-hydroxy-3-(quinolin-2-ylthio)-5,6-dihydro-2H-pyran-2-one], 0.9 µM; as for `COc1ccc(CCC2(C3CCCC3)CC(O)=C(Sc3ncc4[nH]cnc4n3)C(=O)O2)cc1Cl` (centres unmarked) [C(67), 6-[2-(3-chloro-4-methoxyphenyl)ethyl]-6-cyclopentyl-4-hydroxy-3-(7H-purin-2-ylthio)-5,6-dihydro-2H-pyran-2-one], 0.05 µM.
Regarding `COc1ccc(CCC2(C3CCCC3)CC(O)=C(Sc3ncnc4ccccc34)C(=O)O2)cc1Cl` (centres unmarked) [C(68), 6-[2-(3-chloro-4-methoxyphenyl)ethyl]-6-cyclopentyl-4-hydroxy-3-(quinazolin-4-ylthio)-5,6-dihydro-2H-pyran-2-one], the concentration for half-maximal inhibition (IC50) is 0.2 µM.
For `Cc1cc(C)n2nc(SC3=C(O)CC(CCc4ccc(C(F)F)c(F)c4)(C4CCCC4)OC3=O)nc2n1` (centres unmarked) [C(69), 6-Cyclopentyl-6-{2-[4-(difluoromethyl)-3-fluorophenyl]ethyl}-3-[(5,7-dimethyl[1,2,4]triazolo[1,5-a]pyrimidin-2-yl)thio]-4-hydroxy-5,6-dihydro-2H-pyran-2-one], the IC50 was found to be 0.13 µM.
Regarding `COc1cc(OC)c(CCC2(C3CCCC3)CC(O)=C(Sc3nc4nc[nH]c(=O)c4[nH]3)C(=O)O2)cc1Cl` (centres unmarked) [C(70), 8-({6-[2-(5-chloro-2,4-dimethoxyphenyl)ethyl]-6-cyclopentyl-4-hydroxy-2-oxo-5,6-dihydro-2H-pyran-3-yl}thio)-1,7-dihydro-6H-purin-6-one], the half-inhibitory concentration (IC50) is 0.0074 µM.
`COc1cc(OC)c(CCC2(C3CCCC3)CC(O)=C(Sc3n[nH]c(-c4ccccc4)n3)C(=O)O2)cc1Cl` (centres unmarked) [C(71), 6-[2-(5-Chloro-2,4-dimethoxyphenyl)ethyl]-6-cyclopentyl-4-hydroxy-3-[(5-phenyl-1H-1,2,4-triazol-3-yl)thio]-5,6-dihydro-2H-pyran-2-one]: the half-inhibitory concentration (IC50) is 0.058 µM.
For `COc1cc(OC)c(CCC2(C3CCCC3)CC(O)=C(Sc3nnnn3C)C(=O)O2)cc1Cl` (centres unmarked) [C(72), 6-[2-(5-Chloro-2,4-dimethoxyphenyl)ethyl]-6-cyclopentyl-4-hydroxy-3-[(1-methyl-1H-tetrazol-5-yl)thio]-5,6-dihydro-2H-pyran-2-one], the IC50 came out at 0.078 µM.

Source of the values: US7473790B2 (Pfizer Inc., priority 2003, dated 2009).
